Reference: PMC4744035, “In Vivo, In Vitro, and In Silico Characterization of Peptoids as Antimicrobial Agents” (PLoS ONE, 2016)
≈ marks a conversion by molar mass, not a printed value. Square brackets hold non-standard residues; d marks the D form. Peptide text beside a SMILES is read from it. Nspe = C[C@H](NCC(=O)O)c1ccccc1; Nlys = NCCCCNCC(=O)O

How the values were obtained:
B. subtilis ATCC 6633 = assay type: cell-based
Procedure, shortened: (§1)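 MICs determined by 2:1 serial broth microdilution in cation-adjusted Mueller-Hinton broth per CLSI M7-A6, using inoculum at 1 x 10^6 CFU/mL mixed 1:1 with peptoid solution. Three independent replicates, each with two parallel trials.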

E. coli ATCC 35218 = assay type: cell-based
Procedure, shortened: as §1

E. coli 63103 (ESBL) = assay: microbe, parasite or virus in culture; conditions: E. coli 63103 (ESBL)
Procedure, shortened: (§2)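 Minimum inhibitory concentrations came from overnight 37°C cultures in Mueller Hinton medium seeded at 2–7 x 10^5 CFU/mL.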

E. coli 64771 (ESBL) = assay: microbe, parasite or virus in culture; conditions: E. coli 64771 (ESBL)
Procedure, shortened: as §2

E. faecalis F43559 (VRE) = assay: microbe, parasite or virus in culture; conditions: E. faecalis F43559 (VRE)
Procedure, shortened: as §2

E. faecalis W61950 (VRE) = assay: microbe, parasite or virus in culture; conditions: E. faecalis W61950 (VRE)
Procedure, shortened: as §2

E. faecium mic80 (VRE) = assay: microbe, parasite or virus in culture; conditions: E. faecium mic80 (VRE)
Procedure, shortened: as §2

[1] = tested on: K. pneumonia 63575 (ESBL); assay: microbe, parasite or virus in culture; conditions: K. pneumonia 63575 (ESBL)
Procedure, shortened: as §2

P. aeruginosa 198 (MDR) = assay: microbe, parasite or virus in culture; conditions: P. aeruginosa 198 (MDR)
Procedure, shortened: as §2

[2] = tested on: P. aeruginosa H1027 (MDR); assay: microbe, parasite or virus in culture; conditions: P. aeruginosa H1027 (MDR)
Procedure, shortened: as §2

P. maltophilia ATCC13637 = assay: microbe, parasite or virus in culture; conditions: P. maltophilia ATCC13637
Procedure, shortened: as §2

[3] = tested on: 20 bacterial strains (13 Gram-negative, 7 Gram-positive)
Experimental: The MICs of test agents were measured using a modified broth micro-dilution method in Difco Mueller Hinton medium, on a panel of bacterial pathogens that were both susceptible and resistant to common antibiotics (S1 File). Briefly, serial dilutions were performed in 0.01% acetic acid containing 0.2% bovine serum albumin at 10-fold the desired final concentration. Ten μL of the 10-fold concentrated test reagents were added to each well of a 96-well polypropylene microtitre plate containing 90 μL of Mueller Hinton media per well. Bacteria were added to the plate from an overnight culture at a final concentration of 2–7 x 10^5 CFU/mL and incubated overnight at 37°C. The MIC is defined as the concentration at which no growth was observed.
Screening of peptoid antimicrobial activity against a panel of multidrug resistant superbugs was done according to the protocol described in the manuscript. The bacterial strains used in this panel included; P. aeruginosa PAO1 strain H103 [1], P. maltophilia ATCC#13637, S. aureus ATCC#25923 [1], E. faecalis ATCC#29212 [2], and E. cloacae 218R, constitutively expressing Class C chromosomal β-lactamase, were from the Hancock lab strains collection. An MRSA clinical isolate was kindly provided by Anthony Chow (Vancouver General Hospital, Vancouver, Canada). Two Klebsiella pneumoniae and two E. coli clinical isolates expressing extended spectrum β-lactamases (ESBL) were kindly provided by George Zhanel (Health Sciences Centre, Winnipeg, Canada). Vancomycin-resistant clinical isolates of Enterococcus faecalis and E. faecium were obtained from Ana M. Paccagnella (BC Centre for Disease Control, Vancouver, Canada). Three clinical isolates (#9, #198 and #213) of multi-drug resistant P. aeruginosa, were kindly provided by Carlos Kiffer (University of São Paulo, Brazil). […] Three P. aeruginosa clinical isolates of the Liverpool epidemic strain (LES) (H1027, H1030 and LES400) were all kindly provided by Craig Winstanley (University of Liverpool, UK). […] All tested bacterial strains were categorized as biohazard level 2 pathogens.

S. aureus (ATCC 25923) = assay: Murine model of invasive S. aureus infection; assay type: in vivo, CD1 mice; conditions: mice, 4 mg/kg
Experimental: Animal experiments were performed in accordance with University of British Columbia Care Ethics Committee approval and guidelines as per animal care certificate #A04-0020. Female CD1 mice (6–8 week old) were weighed, marked, and injected with 200 μL of S. aureus (ATCC 25923) ~10^9 CFU/mouse suspended in Mueller Hinton broth containing 5% mucin and injected intraperitoneally. Four hours after infection, animals were treated with 4 mg/kg or 100μg per mouse of peptoid 1 (experimental group; n = 10) or an equivalent volume of saline (control group; n = 10). All animals were monitored two hours after each injection step, they were also evaluated at the end of the working day and the next morning a couple of hours prior to the experimental endpoint. Humane endpoints criteria; immobilization and shaking, were put down but none of the test subjects were evaluated to reach these endpoints prior to the experimental endpoint. The mice were euthanized 24 hours post-infection using CO2. The peritoneal cavity was exposed and washed with 5 mL PBS. […] Plates were incubated overnight at 37°C and colonies were counted the following day. […] The statistical differences between peptide treated and naïve mice were assessed using PRISM® (GraphPad Software Inc., San Diego, CA) using contingency tables Chi-square test, with a confidence interval of 99%. […]

[4] = Acute toxicity screen in healthy mice; assay type: in vivo; conditions: three healthy mice, 4 mg/kg (100 μg per mouse) intraperitoneally
Experimental: This dosage was selected to be on the conservative end of the dosage range typically evaluated for AMPs (1 mg/kg to 24 mg/kg) in other animal studies. To screen for acute signs of toxicity, three healthy mice were injected intraperitoneally with 4 mg/kg (100 μg per mouse) of peptoid 1, and a second control group with an equivalent volume of saline.

## C[C@@H](c1ccccc1)N(CC(N)=O)C(=O)CN(C(=O)CN(CCCCN)C(=O)CN(C(=O)CN(C(=O)CN(CCCCN)C(=O)CN(C(=O)CN(C(=O)CN(CCCCN)C(=O)CN(C(=O)CN(C(=O)CNCCCCN)[C@@H](C)c1ccccc1)[C@@H](C)c1ccccc1)[C@@H](C)c1ccccc1)[C@@H](C)c1ccccc1)[C@@H](C)c1ccccc1)[C@@H](C)c1ccccc1)[C@@H](C)c1ccccc1 [Peptoid 1, H-(NLys-Nspe-Nspe)4-NH2] (H-[Nlys][Nspe][Nspe][Nlys][Nspe][Nspe][Nlys][Nspe][Nspe][Nlys][Nspe][Nspe]-NH2)
B. subtilis ATCC 6633
  MIC B. subtilis: 1.6 µM (≈ 2.91 µg/mL)
E. coli ATCC 35218
  MIC E. coli: 6.3 µM (≈ 11.5 µg/mL)
E. coli 63103 (ESBL)
  MIC: 2 µg/mL (≈ 1.1 µM)
E. coli 64771 (ESBL)
  MIC: 2 µg/mL (≈ 1.1 µM)
E. faecalis F43559 (VRE)
  MIC: 4 µg/mL (≈ 2.2 µM)
E. faecalis W61950 (VRE)
  MIC: 8 µg/mL (≈ 4.4 µM)
E. faecium mic80 (VRE)
  MIC: 2 µg/mL (≈ 1.1 µM)
[1]
  MIC: 4 µg/mL (≈ 2.2 µM)
P. aeruginosa 198 (MDR)
  MIC: 4 µg/mL (≈ 2.2 µM)
[2]
  MIC: 2 µg/mL (≈ 1.1 µM)
P. maltophilia ATCC13637
  MIC: 2 µg/mL (≈ 1.1 µM)
[3]; 7 Gram-positive strains
  median MIC against all Gram-positive strains tested: 2 µg/mL
[3]; out of the 20 pathogens tested
  number of pathogens with MIC ≤ 8 μg/mL: 19
S. aureus (ATCC 25923)
  toxicity: no medium-term toxicity
[4]
  acute signs of toxicity, 24 hours post-injection observation: all mice appeared to be healthy and exhibited normal activity and no weight loss or abject morbidity
